Measurements reported in patent US10227323B2, “Glucosylceramide synthase inhibitors for the treatment of diseases” (BIOMARIN PHARMACEUTICAL INC., priority 2013, dated 2019).

These compounds were tested against T1, GCS (Canis lupus familiaris, UniProt A0A8I3MXG6) (assay: Assay 1: GCS Enzymatic Assay (MDCK cell lysate, C6-NBD-Ceramide, LC/MS)). Conditions: Table 2; data marked by *.
T1 sequence (A0A8I3MXG6 1-394): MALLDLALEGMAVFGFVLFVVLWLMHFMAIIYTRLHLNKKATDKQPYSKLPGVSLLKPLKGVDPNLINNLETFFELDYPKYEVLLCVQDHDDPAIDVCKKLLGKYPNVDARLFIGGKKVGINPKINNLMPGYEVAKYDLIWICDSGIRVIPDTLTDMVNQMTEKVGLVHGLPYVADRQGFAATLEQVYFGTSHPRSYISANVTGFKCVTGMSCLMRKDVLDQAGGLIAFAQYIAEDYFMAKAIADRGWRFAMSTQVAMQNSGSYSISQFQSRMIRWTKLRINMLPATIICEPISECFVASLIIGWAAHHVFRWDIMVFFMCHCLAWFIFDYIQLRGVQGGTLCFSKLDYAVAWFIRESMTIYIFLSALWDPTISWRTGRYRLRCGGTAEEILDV
Format: biochemical, canine
Method in brief: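 LC/MS/MS measurement of glucosylceramide and NBD-ceramide after a 1 h, 37 °C reaction with 100 μM UDP-glucose and 10 μM C6-NBD-ceramide gave IC50s or percent inhibition.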

Row | SMILES | % inhibition generated from Assay 1
1 | Cn1ncc2ccc(-c3cccc(C(=O)C(=O)N[C@H](CN4CCCC4)[C@H](O)c4ccc(OC5CC5)c(Cl)c4)c3)cc21 [Example 261, N-((1R,2R)-1-(3-chloro-4-cyclopropoxyphenyl)-1-hydroxy-3-(pyrrolidin-1-yl)propan-2-yl)-2-(3-(1-methyl-1H-indazol-6-yl)phenyl)-2-oxoacetamide] | A* (the compound had a % inhibition of a percent inhibition of greater than or equal to about 50%)
2 | O=C(N[C@H](CN1CCCC1)[C@H](O)c1ccc(OC2CC2)c(Cl)c1)C(=O)N1CCN(c2ccc(F)cc2)CC1 [Example 262, N-((1R,2R)-1-(3-chloro-4-cyclopropoxyphenyl)-1-hydroxy-3-(pyrrolidin-1-yl)propan-2-yl)-2-(4-(4-fluorophenyl)piperazin-1-yl)-2-oxoacetamide] | B* (the compound had a % inhibition of greater than or equal to about 3% but less than about 50%)
3 | O=C(N[C@H](CN1CCCC1)[C@H](O)c1ccc(OC2CC2)c(C(F)(F)F)c1)C(=O)c1ccc(-c2ccc(F)cc2)cc1 [Example 265, N-((1R,2R)-1-(4-cyclopropoxy-3-(trifluoromethyl)phenyl)-1-hydroxy-3-(pyrrolidin-1-yl)propan-2-yl)-2-(4′-fluoro-[1,1′-biphenyl]-4-yl)-2-oxoacetamide] | B* (the compound had a % inhibition of greater than or equal to about 3% but less than about 50%)

Same assay, conditions: Table 2; data without asterisk; read-out: IC50 (nM) generated from Assay 1

Row | IC50 [nM] | SMILES
4 | 50 to 5000 | O=C(N[C@H](CN1CCCC1)[C@H](O)c1ccc(OC2CC2)c(Cl)c1)C(=O)C1CCN(c2ccc(F)cc2)CC1 [Compound 380, N-((1R,2R)-1-(3-chloro-4-cyclopropoxyphenyl)-1-hydroxy-3-(pyrrolidin-1-yl)propan-2-yl)-2-(1-(4-fluorophenyl)piperidin-4-yl)-2-oxoacetamide]
5 | < 50 | O=C(N[C@H](CN1CCC1)[C@H](O)c1ccc(OC2CC2)c(F)c1)C(=O)c1cc2ccc(Cl)cc2s1 [Compound 381, N-((1R,2R)-3-(azetidin-1-yl)-1-(4-cyclopropoxy-3-fluorophenyl)-1-hydroxypropan-2-yl)-2-(6-chlorobenzo[b]thiophen-2-yl)-2-oxoacetamide]
6 | < 50 | CN(C(=O)C(=O)c1ccc(-c2ccc(F)cc2)cc1)[C@H](CN1CCCC1)[C@H](O)c1ccc(OC2CC2)c(F)c1 [Compound 382, N-((1R,2R)-1-(4-cyclopropoxy-3-fluorophenyl)-1-hydroxy-3-(pyrrolidin-1-yl)propan-2-yl)-2-(4′-fluoro-[1,1′-biphenyl]-4-yl)-N-methyl-2-oxoacetamide]
7 | < 50 | CN(C(=O)C(=O)c1cc2ccc(Cl)cc2s1)[C@H](CN1CCCC1)[C@H](O)c1ccc(OC2CC2)c(F)c1 [Compound 383, 2-(6-chlorobenzo[b]thiophen-2-yl)-N-((1R,2R)-1-(4-cyclopropoxy-3-fluorophenyl)-1-hydroxy-3-(pyrrolidin-1-yl)propan-2-yl)-N-methyl-2-oxoacetamide]
8 | < 50 | CC(C)n1ncc2cc(-c3ccc(C(=O)C(=O)N[C@H](CN4CCCC4)[C@H](O)c4ccc(OC5CC5)c(Cl)c4)cc3)ccc21 [Example 258, N-((1R,2R)-1-(3-chloro-4-cyclopropoxyphenyl)-1-hydroxy-3-(pyrrolidin-1-yl)propan-2-yl)-2-(4-(1-isopropyl-1H-indazol-5-yl)phenyl)-2-oxoacetamide]
9 | < 50 | CC(C)n1cc2cc(-c3ccc(C(=O)C(=O)N[C@H](CN4CCCC4)[C@H](O)c4ccc(OC5CC5)c(Cl)c4)cc3)ccc2n1 [Example 259, N-((1R,2R)-1-(3-chloro-4-cyclopropoxyphenyl)-1-hydroxy-3-(pyrrolidin-1-yl)propan-2-yl)-2-(4-(2-isopropyl-2H-indazol-5-yl)phenyl)-2-oxoacetamide]
10 | < 50 | O=C(N[C@H](CN1CCCC1)[C@H](O)c1ccc(OC2CC2)c(Cl)c1)C(=O)c1ccc(-c2ccc3sc(Cl)cc3c2)cc1 [Example 263, N-((1R,2R)-1-(3-chloro-4-cyclopropoxyphenyl)-1-hydroxy-3-(pyrrolidin-1-yl)propan-2-yl)-2-(4-(2-chlorobenzo[b]thiophen-5-yl)phenyl)-2-oxoacetamide]
11 | < 50 | O=C(N[C@H](CN1CCCC1)[C@H](O)c1ccc(OC2CC2)c(Cl)c1)C(=O)c1ccc(-c2ccc(F)cc2)cn1 [Example 264, N-((1R,2R)-1-(3-chloro-4-cyclopropoxyphenyl)-1-hydroxy-3-(pyrrolidin-1-yl)propan-2-yl)-2-(5-(4-fluorophenyl)pyridin-2-yl)-2-oxoacetamide]
12 | < 50 | CC(C)n1ccc2cc(-c3ccc(C(=O)C(=O)N[C@H](CN4CCCC4)[C@H](O)c4ccc(OC5CC5)c(Cl)c4)cc3)ccc21 [Example 266, N-((1R,2R)-1-(3-chloro-4-cyclopropoxyphenyl)-1-hydroxy-3-(pyrrolidin-1-yl)propan-2-yl)-2-(4-(1-isopropyl-1H-indo1-5-yl)phenyl)-2-oxoacetamide]
13 | < 50 | O=C(N[C@H](CN1CCCC1)[C@H](O)c1ccc2c(c1)OCCO2)C(=O)c1ccc(-c2ccc(Cl)cc2)cc1 [Example 267, 2-(4′-chloro-[1,1′-biphenyl]-4-yl)-N-((1R,2R)-1-(2,3-dihydrobenzo[b][1,4]dioxin-6-yl)-1-hydroxy-3-(pyrrolidin-1-yl)propan-2-yl)-2-oxoacetamide]
14 | < 50 | O=C(N[C@H](CN1CCCC1)[C@H](O)c1ccc2c(c1F)OCCO2)C(=O)c1ccc(-c2ccc(F)cc2)cc1 [Example 268, N-((1R,2R)-1-(5-fluoro-2,3-dihydrobenzo[b][1,4]dioxin-6-yl)-1-hydroxy-3-(pyrrolidin-1-yl)propan-2-yl)-2-(4′-fluoro-[1,1′-biphenyl]-4-yl)-2-oxoacetamide]
15 | < 50 | CC(C)n1ccc2cc(-c3ccc(C(=O)C(=O)N[C@H](CN4CCCC4)[C@H](O)c4cc(F)c5c(c4)OCCO5)cc3)ccc21 [Example 269, N-((1R,2R)-1-(8-fluoro-2,3-dihydrobenzo[b][1,4]dioxin-6-yl)-1-hydroxy-3-(pyrrolidin-1-yl)propan-2-yl)-2-(4-(1-isopropyl-1H-indol-5-yl)phenyl)-2-oxoacetamide]
16 | < 50 | O=C(N[C@H](CN1CCCC1)[C@H](O)c1ccc(OC2CC2)c(Cl)c1)C(=O)c1ccc(-c2ccc(Cl)cc2)cc1 [Example 270, N-((1R,2R)-1-(3-chloro-4-cyclopropoxyphenyl)-1-hydroxy-3-(pyrrolidin-1-yl)propan-2-yl)-2-(4′-chloro-[1,1′-biphenyl]-4-yl)-2-oxoacetamide]
17 | < 50 | CC(C)n1cnc2cc(-c3ccc(C(=O)C(=O)N[C@H](CN4CCCC4)[C@H](O)c4ccc(OC5CC5)c(Cl)c4)cc3)ccc21 [Example 271, N-((1R,2R)-1-(3-chloro-4-cyclopropoxyphenyl)-1-hydroxy-3-(pyrrolidin-1-yl)propan-2-yl)-2-(4-(1-isopropyl-1H-benzo[d]imidazol-5-yl)phenyl)-2-oxoacetamide]
18 | < 50 | O=C(N[C@H](CN1CCCC1)[C@H](O)c1cc(F)c2c(c1)OCCO2)C(=O)c1ccc(-c2ccc(Cl)cc2)cc1 [Example 272, 2-(4′-chloro-[1,1′-biphenyl]-4-yl)-N-((1R,2R)-1-(8-fluoro-2,3-dihydrobenzo[b][1,4]dioxin-6-yl)-1-hydroxy-3-(pyrrolidin-1-yl)propan-2-yl)-2-oxoacetamide]
19 | < 50 | O=C(N[C@H](CN1CCCC1)[C@H](O)c1cc(F)c2c(c1)OCCO2)C(=O)c1ccc(N2CCCC2)cc1 [Example 273, N-((1R,2R)-1-(8-fluoro-2,3-dihydrobenzo[b][1,4]dioxin-6-yl)-1-hydroxy-3-(pyrrolidin-1-yl)propan-2-yl)-2-oxo-2-(4-(pyrrolidin-1-yl)phenyl)acetamide]
20 | < 50 | O=C(N[C@H](CN1CCCC1)[C@H](O)c1ccc(OC2CC2)c(Cl)c1)C(=O)c1ccc(-c2ccc(C(F)(F)F)cc2)cc1 [Example 274, N-((1R,2R)-1-(3-chloro-4-cyclopropoxyphenyl)-1-hydroxy-3-(pyrrolidin-1-yl)propan-2-yl)-2-oxo-2-(4′-(trifluoromethyl)-[1,1′-biphenyl]-4-yl)acetamide]
21 | < 50 | O=C(N[C@H](CN1CCCC1)[C@H](O)c1cc(F)c2c(c1)OCCO2)C(=O)c1ccc(-c2ccc3c(cnn3C3CC3)c2)cc1 [Example 275, 2-(4-(1-cyclopropyl-1H-indazol-5-yl)phenyl)-N-((1R,2R)-1-(8-fluoro-2,3-dihydrobenzo[b][1,4]dioxin-6-yl)-1-hydroxy-3-(pyrrolidin-1-yl)propan-2-yl)-2-oxoacetamide]
22 | < 50 | O=C(N[C@H](CN1CCCC1)[C@H](O)c1cc(Cl)c2c(c1)OCCO2)C(=O)c1ccc(-c2ccc3c(cnn3C3CC3)c2)cc1 [Example 276, N-((1R,2R)-1-(8-chloro-2,3-dihydrobenzo[b][1,4]dioxin-6-yl)-1-hydroxy-3-(pyrrolidin-1-yl)propan-2-yl)-2-(4-(1-cyclopropyl-1H-indazol-5-yl)phenyl)-2-oxoacetamide]
23 | < 50 | O=C(N[C@H](CN1CCCC1)[C@H](O)c1ccc(OC2CC2)c(Cl)c1)C(=O)c1ccc(-c2ccc3c(cnn3C3CC3)c2)cc1 [Example 277, N-((1R,2R)-1-(3-chloro-4-cyclopropoxyphenyl)-1-hydroxy-3-(pyrrolidin-1-yl)propan-2-yl)-2-(4-(1-cyclopropyl-1H-indazol-5-yl)phenyl)-2-oxoacetamide]
